# Columns and labels:
# A549 cells = assay: Chromosome staining experiment; type: cell-based, human; conditions: A549, 5 μM DOX or 25 μM JH62 for 6 h
# Experimental: Metaphase chromosome spreads were prepared from A549 cells. Briefly, A549 cells were cultured. After treatment with JH62 or DOX, cells were incubated with Colcemid (Gibco BRL; 0.2 μg/mL final concentration) for 2 h to arrest cells in metaphase. Cells were then subjected to hypotonic treatment in KCl (0.075 M) at 37 °C for 5 min, and fixed by repeated washing with ice-cold freshly prepared 3:1 (vol/vol) methanol:acetic acid. Chromosome spreads were prepared on premarked glass slides using the “drop-cryo” protocol. The chromosome suspension was dropped onto a slide. This was followed by adding three drops of 45% acetic acid and placing a coverslip over the suspension. The slide was then inverted and placed on dry ice for 15 min. The spreads were postfixed in 2.5% glutaraldehyde in cacodylate buffer (pH 7.4, 75 mM) for 15 min and washed with cacodylate buffer (0.1 M). The chromosomes were stained with Vista Green DNA dye (Cell Biolabs, Singapore). After staining, the preparations were washed in water for 5, 10, and 15 min, then dehydrated using a series of ethanol solutions as follows: 5 min in a 70% solution, 10 min in an 85% solution, and 15 min in 100% ethanol. Finally, slides were mounted with a permanent mounting medium, sealed, and analyzed by microscopy.
# [1] = test system: AML12: mouse liver cell lines; assay: WST-1 cell viability, AML12; type: cell-based; conditions: AML12, non-cancer cell line
# From the text: (§1) Different cells were utilized as follows: MEF: murine embryonic fibroblast (RRID: CVCL_L690); AML12: mouse liver cell lines (RRID: CVCL_0140); WI-38: human lung fibroblast cell lines (RRID: CVCL_0579); THLE-2: human liver epithelial cell lines (RRID: CVCL_3803); A549: human lung cancer cell lines (RRID: CVCL_0023); HEPG2: human liver cancer cell lines (RRID: CVCL_0027); HEP3B: human hepatoma cell lines (RRID: CVCL_0326); BxPC3: human pancreatic cancer cell lines (RRID: CVCL_0186); U87: human primary glioblastoma cell lines (RRID: CVCL_0022); DU145: human prostate cancer cell lines (RRID: CVCL_0105); MCF7: human breast cancer cell lines (RRID: CVCL_0031); HeLa: human cervical cancer cell lines (RRID: CVCL_0030); HCT116: human colon cancer cell lines (RRID: CVCL_0291). Cells were maintained in Dulbecco’s modified Eagle’s medium (DMEM, Gibco) supplemented with L-glutamine (Lonza) (2 mM), 10% fetal bovine serum (FBS, Hyclone), 1 × non-essential amino acids, and sodium pyruvate (1 mM). THLE-2 cells were maintained in THLE-2 Cell Complete Medium (Zhong Qiao Xin Zhou, Shanghai, China). Cells were incubated at 37 °C in a humidified incubator with 5% CO2. […]
# (§2) Cell viability was assessed using the WST-1 assay, based on a previously reported method with slight modifications. […] Absorbance at OD450 was measured using a microplate reader (Synergy H1; BioTek Instruments, Winooski, VT, USA).
# [2] = test system: HEP3B: human hepatoma cell lines; assay: WST-1 cell viability, HEP3B; type: cell-based; conditions: HEP3B (liver) cancer cell line
# From the text: as §1, §2
compound,measurement,setting,value
"CCCCCCCC/C=C/CCCc1cc(=O)c2ccccc2[nH]1 [JH62, E-2-(tridec-4-en-1-yl)-quinolin-4(1H)-one]",chromosome morphology,A549 cells,maintained normal morphology similar to the control
same,IC50,[1],37.1 ± 0.7 µM
same,IC50,[2],10.8 ± 0.4 µM
